Reference: ChEMBL document CHEMBL1132903 (Bioorg Med Chem Lett, 2000)
One block for each compound: values may come before it. Where a SMILES comes first, the peptide text is derived from it.

Experiments:
Neutrophil elastase [1] = target: T1, Neutrophil elastase (Homo sapiens, UniProt P08246); assay: Competitive inhibition constant against Human neutrophil elastase using the reporter substrate MeO-AAPV-pNa
T1 sequence (P08246 whole entry): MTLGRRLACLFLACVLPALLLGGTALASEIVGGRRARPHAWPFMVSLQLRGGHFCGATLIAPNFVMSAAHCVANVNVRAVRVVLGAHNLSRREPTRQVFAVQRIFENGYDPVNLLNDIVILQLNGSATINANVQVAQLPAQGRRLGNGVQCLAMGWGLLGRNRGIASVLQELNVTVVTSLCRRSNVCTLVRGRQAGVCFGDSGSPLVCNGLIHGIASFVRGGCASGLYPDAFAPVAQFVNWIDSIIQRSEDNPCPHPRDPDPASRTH

[2] = target: Pancreatic elastase (Sus scrofa) (UniProt P08419+P00772); assay: Inhibition constant for uncompetitive inhibition of Suc-AAPA and Pancreatic elastase; type: protein assay
Sequence of Pancreatic elastase (Sus scrofa) (P00772 whole entry, looked up, one chain of several): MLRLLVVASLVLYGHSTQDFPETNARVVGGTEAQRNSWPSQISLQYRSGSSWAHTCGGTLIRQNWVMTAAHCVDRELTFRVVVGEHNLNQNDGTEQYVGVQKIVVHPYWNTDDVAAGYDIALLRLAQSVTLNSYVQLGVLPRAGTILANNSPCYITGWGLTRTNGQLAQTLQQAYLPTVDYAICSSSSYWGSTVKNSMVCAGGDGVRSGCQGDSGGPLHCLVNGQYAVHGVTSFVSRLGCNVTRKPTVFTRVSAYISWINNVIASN

Chymotrypsinogen A [3] = target: T2, Chymotrypsinogen A (Bos taurus, UniProt P00766); assay: Competitive inhibition constant against Chymotrypsinogen using the reporter substrate Suc-AAPA-pNa
Serine protease 1 [4] = target: T3, Serine protease 1 (Homo sapiens, UniProt P07477)
T3 sequence (P07477 whole entry): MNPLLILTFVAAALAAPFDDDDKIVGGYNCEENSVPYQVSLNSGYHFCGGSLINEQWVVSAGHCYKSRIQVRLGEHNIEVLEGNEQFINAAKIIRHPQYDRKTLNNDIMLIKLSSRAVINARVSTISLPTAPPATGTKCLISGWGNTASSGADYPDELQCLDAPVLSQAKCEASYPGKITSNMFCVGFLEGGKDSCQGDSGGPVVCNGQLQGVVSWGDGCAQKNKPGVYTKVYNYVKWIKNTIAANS

[5] = target: T4, Chymotrypsin-like elastase family member 2A (Sus scrofa, UniProt P08419); assay: Peptide was tested for inhibition constant for uncompetitive inhibition using Suc-AAPA and Pancreatic elastase
T4 sequence (P08419 whole entry): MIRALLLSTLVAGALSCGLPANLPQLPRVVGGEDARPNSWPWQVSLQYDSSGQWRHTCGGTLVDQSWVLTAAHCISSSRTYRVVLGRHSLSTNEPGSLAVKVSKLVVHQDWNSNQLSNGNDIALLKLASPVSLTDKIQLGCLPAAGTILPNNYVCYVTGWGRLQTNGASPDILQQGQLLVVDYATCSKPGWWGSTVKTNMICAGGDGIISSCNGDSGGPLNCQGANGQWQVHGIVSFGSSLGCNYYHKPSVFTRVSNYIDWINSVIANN

Chymotrypsinogen A [6] = target: T2, Chymotrypsinogen A; assay: Competitive inhibition constant against Chymotrypsinogen using the reporter substrate Suc-AAPA-pNa; No inhibition
Neutrophil elastase [7] = target: T1, Neutrophil elastase; assay: Competitive inhibition constant against Human neutrophil elastase using the reporter substrate MeO-AAPV-pNa; NI means no inhibition
[8] = target: T5, Chymotrypsin-like elastase family member 2A (Sus scrofa) (UniProt P08419)
T5 sequence (whole entry): T4 sequence (P08419 whole entry)
Description: Peptide was tested for inhibition constant for competitive inhibition using Suc-AAPA-pNa and Pancreatic elastase

Serine protease 1 [9] = target: T3, Serine protease 1; assay: Competitive inhibition constant against trypsin using the reporter substrate Ac-R-pNa

Compound: H-MFLEAIPMSIPPE-OH
- Ki (Chymotrypsinogen A [3]): 240 µM

Compound: CC[C@@H](C)[C@@H](NC(=O)[C@@H](CC)NC(=O)[C@@H](CCC(=O)O)NC(=O)[C@@H](CC(C)C)NC(=O)[C@@H](Cc1ccccc1)NC(=O)[C@H](N)CCSC)C(=O)N1CCC[C@H]1C(=O)O
- Ki' [2]: 220 µM

Compound: CC(C)C[C@H](NC(=O)[C@@H](N)Cc1ccccc1)C(=O)N[C@@H](CCC(=O)O)C(=O)O (H-Phe-Leu-Glu-OH)
- Ki' [2]: 1400 µM

Compound: CC[C@H](C)[C@H](NC(=O)[C@H](CO)NC(=O)[C@H](CCSC)NC(=O)[C@@H]1CCCN1C(=O)[C@@H](NC(=O)[C@H](C)NC(=O)[C@H](CCC(=O)O)NC(=O)[C@H](CC(C)C)NC(=O)[C@H](Cc1ccccc1)NC(=O)[C@@H](N)CCSC)[C@@H](C)CC)C(=O)O
- Ki (Chymotrypsinogen A [3]): 160 µM
- Ki (Serine protease 1 [4]): Not Active

Compound: CC[C@@H](C)[C@@H](NC(=O)[C@@H](C)NC(=O)[C@@H](CCC(=O)O)NC(=O)[C@@H](CC(C)C)NC(C)=O)C(=O)N1CCC[C@H]1C(=O)N[C@@H](CCSC)C(=O)O
- Ki' [2]: 890 µM

Compound: CC[C@@H](C)[C@@H](NC(=O)[C@@H](C)NC(=O)[C@@H](CCC(=O)O)NC(=O)[C@@H](CC(C)C)NC(=O)[C@@H](Cc1ccccc1)NC(=O)[C@H](N)CCSC)C(=O)N1CCC[C@H]1C(=O)N[C@@H](CCSC)C(=O)O
- Ki (Neutrophil elastase [1]): 270 µM
- Ki' [2]: 440 µM
- Ki' [8]: No inhibition

Compound: CC[C@H](C)[C@H](NC(=O)[C@H](C)NC(=O)[C@H](CCC(=O)O)NC(=O)[C@H](CC(C)C)NC(=O)[C@H](Cc1ccccc1)NC(=O)[C@@H](N)CCSC)C(=O)N1CCC[C@H]1C(=O)N[C@@H](CCCCN)C(=O)O
- Ki (Chymotrypsinogen A [6]): Not Active
- Ki (Serine protease 1 [9]): 540 µM

Further lines, results first:

- Ki (Neutrophil elastase [1]): 190 µM
- Ki' [2]: 1200 µM
Compound: CC[C@@H](C)[C@@H](NC(=O)[C@@H](C)NC(=O)[C@@H](CCC(=O)O)NC(=O)[C@@H](CC(C)C)NC(=O)[C@@H](Cc1ccccc1)NC(=O)[C@H](N)CCSC)C(=O)N1CCC[C@H]1C(=O)N[C@@H](CCSC)C(=O)N[C@@H](CO)C(=O)O

- Ki' [2]: 530 µM
Compound: CC[C@H](C)[C@H](NC(=O)[C@H](C)NC(=O)[C@H](CCC(=O)O)NC(=O)[C@H](CC(C)C)NC(=O)[C@@H](N)Cc1ccccc1)C(=O)N1CCC[C@@H]1C(=O)N[C@H](CCSC)C(=O)O

- Ki' [2]: 890 µM
Compound: CSCC[C@H](N)C(=O)N[C@@H](Cc1ccccc1)C(=O)N[C@@H](CC(C)C)C(=O)N[C@@H](C)C(=O)O (H-MFLA-OH)

- Ki (Neutrophil elastase [1]): 27 µM
- Ki' [2]: 340 µM
Compound: CC[C@@H](C)[C@H](NC(=O)[C@H](CO)NC(=O)[C@H](CCSC)NC(=O)[C@@H]1CCCN1C(=O)[C@H](NC(=O)[C@@H](C)NC(=O)[C@@H](CCC(=O)O)NC(=O)[C@@H](CC(C)C)NC(=O)[C@@H](Cc1ccccc1)NC(=O)[C@H](N)CCSC)[C@H](C)CC)C(=O)O

- Ki (Chymotrypsinogen A [3]): 3100 µM
- Ki (Serine protease 1 [4]): Not Active
Compound: CC[C@H](C)[C@H](NC(=O)[C@H](C)NC(=O)[C@H](CCC(=O)O)NC(=O)[C@H](CC(C)C)NC(=O)[C@H](Cc1ccccc1)NC(=O)[C@@H](N)CCSC)C(=O)N1CCC[C@H]1C(=O)N[C@@H](CCSC)C(=O)N[C@@H](CO)C(=O)O

- Ki (Chymotrypsinogen A [3]): 2300 µM
- Ki [5]: No inhibition
- Ki (Serine protease 1 [4]): Not Active
Compound: CC[C@H](C)[C@H](NC(=O)[C@H](C)NC(=O)[C@H](CCC(=O)O)NC(=O)[C@H](CC(C)C)NC(=O)[C@H](Cc1ccccc1)NC(=O)[C@@H](N)CCSC)C(=O)N1CCC[C@H]1C(=O)N[C@@H](CCSC)C(=O)O

- Ki (Chymotrypsinogen A [6]): Not Active
- Ki' [2]: 370 µM
- Ki (Neutrophil elastase [7]): Not Active
- Ki (Serine protease 1 [4]): Not Active
Compound: CSCC[C@@H](N)C(=O)N[C@H](Cc1ccccc1)C(=O)N[C@H](CC(C)C)C(=O)N[C@H](CCC(=O)O)C(=O)O

- Ki' [2]: 640 µM
- Ki (Neutrophil elastase [7]): Not Active
Compound: CC[C@@H](C)[C@@H](NC(=O)[C@@H](C)NC(=O)[C@@H](CCC(=O)O)NC(=O)[C@@H](CC(C)C)NC(=O)[C@@H](Cc1ccccc1)NC(=O)[C@H](N)CCSC)C(=O)N1CCC[C@H]1C(=O)N[C@H](CCCCN)C(=O)O
